Peptide text beside a SMILES is read from it. * marks the point of attachment. X1 = COc1cccc2c1C(=O)c1c(O)c3c(c(O)c1C2=O)C[C@@](O)(C(=O)CO)C[C@@H]3O[C@H]1C[C@H](N=CCCCC=N[C@@H](CCSC)C(=O)*)[C@H](O)[C@H](C)O1
How the values were obtained:
[1] = tested on: resistant human ovary carcinoma cell line SKVLB; assay: Cytotoxicity, MTT cell survival; assay type: cell-based; settings: SKVLB^AdrR, 72 hours
Procedure: (§1) Efficacy of the conjugate was studied on the following cell lines: human breast carcinoma cell line MCF-7^wt and resistant human breast carcinoma cell line MCF-7^AdrR; human ovary carcinoma cell line SKOV3 and resistant human ovary carcinoma cell line SKVLB; and murine melanoma cell line B16.
(§2) Study protocol was common for all test runs. The cells cultivated in plastic flasks (COSTAR) in the RPMI medium (SIGMA), which contained 10% of fetal bovine serum (SIGMA), 100 U/ml of penicillin and 100 μg/ml of streptomycin, in a wet environment of 5% CO2 at 37° C., were inoculated in 96-well plates (Costar), 10000 in each well, and studied drugs were then added at different concentrations. After that, the cells were incubated for 72 hours. Two-four hours prior to the end of the incubation period, 50 μl (1 mg/ml) of the MTT solution (3-[4,5-dimethylthiazole-2yl]-2,5-diphenyltetrazole bromide (SIGMA) in the culture medium were added in each well. After the development of coloration, the medium was removed, formazan crystals were dissolved in 150 μl of dimethyl sulfoxide, and the absorbance was measured by spectrophotometry at 540 nm. Survival rates of the cells exposed to free and conjugated DR were determined in percent relative to the survival rate of controls taken as 100%.

[2] = tested on: human breast carcinoma cell line MCF-7^wt; assay: Cytotoxicity, MTT cell survival; assay type: cell-based; settings: 72 hours
Procedure: as §1, §2

[3] = tested on: murine melanoma cell line B16; assay: Cytotoxicity, MTT cell survival; assay type: cell-based; settings: B16, 72 hours
Procedure: as §1, §2

[4] = tested on: human ovary carcinoma cell line SKOV3; assay: Cytotoxicity, MTT cell survival; assay type: cell-based
Procedure: as §1, §2

[5] = tested on: resistant human breast carcinoma cell line MCF-7^AdrR; assay: Cytotoxicity, MTT cell survival; assay type: cell-based; settings: 72 hours
Procedure: as §1, §2

[6] = tested on: subcutaneously implanted line B16 cancer cells; assay: Murine implanted tumor model, intravenous administration; assay type: in vivo; settings: mice, s.c. B16, i.v. 0.2 mg/kg of doxorubicin once every four days; for Increase in ADL, %: three injections, relative to controls
Procedure: The medicines were administered at a dose of 0.2 mg/kg of doxorubicin once every four days, three injections in total, starting from day 3 after the cancer implantation.

[7] = tested on: line NIH 3T3 murine fibroblast cells; assay: Proliferative activity, 3H-thymidine incorporation; assay type: cell-based; settings: NIH 3T3 fibroblasts, 0.1-1000 ng/ml, compared with known polypeptide I (EGF fragment), FIG. 1
Procedure: Proliferative activity of the polypeptide was tested on line NIH 3T3 murine fibroplat cells. The rate of DNA biosynthesis was judged from the amount of ^3H-timidine incorporated in the […] cell fraction. Line NIH 3T3 murine fibroblast cells were cultivated in plastic flasks in the RPM1 medium (SIGMA), which contained 10% of fetal bovine serum (SIGMA), 100 U/mb of penicillin and 100 μg/ml of streptomycin, in a wet environment of 5% CO2 at 37° C. Proliferation of synchronized line NIH 3T3 fibroblasts was induced by adding to the cellular suspension the proposed polypeptide at a different concentration (0.1-1000 ng/ml). The fibroblasts were cultivated in 96-well plates in the complete medium, 200-800 cells in each well containing 200 μl of the medium. ^3H-thymidine (1 μCi/well, […]) was added 2 hours prior to the end of the incubation period. Radioactivity was measured by a scintillation counter (RACKBETA, LKB) with the use of a toluene-based scintillation fluid ZhS-8. The rate of DNA biosynthesis was expressed as the stimulation index (stimulated-to-control cell ratio) calculated by the formula: I=N/No×100%, where I is the stimulation index, N is the number of EGF-stimulated cells, and No is the number of control cells. […]

[8] = Homo sapiens, Breast carcinoma cell

Row | Compound | IC50 ([1]; Homo sapiens) [µM] | IC50 [2, 8] [µM] | IC50 ([3]; Mus musculus) [µM] | IC50 ([4]; Homo sapiens, SK-OV-3, SKOV3, 72 hours) [µM] | IC50 [5, 8] [µM] | ADL (average duration of life) ([6]; three injections from day 3) [days] | Increase in ADL, % [6] [%] | IC50 [1] [µM] | IC50 [2] [µM] | IC50 [3] [µM] | IC50 ([4]; SKOV3, 72 hours) [µM] | IC50 [5] [µM] | onset of tumors and their growth ([6]; three injections from day 3, compared with free DR) | Increase in ADL, % ([6]; listed as Conjugate, 0.2 mg/kg) [%] | Increase in ADL, % ([6]; listed as conjugate, 0.2 mg/kg) [%] | proliferative effect (incorporated 3H-thymidine, stimulation index) [7]
1 | COc1cccc2c1C(=O)c1c(O)c3c(c(O)c1C2=O)C[C@@](O)(C(=O)CO)C[C@@H]3O[C@H]1C[C@H](N)[C@H](O)[C@H](C)O1 [DR, doxorubicin] | 2.01 | 0.0586 | 0.035 | 0.209 | 3.7 | 23.6 ± 4.0 | −24.8 | – | – | – | – | – | – | – | – | –
2 | CC[C@H](C)[C@H](NC(=O)[C@H](Cc1ccc(O)cc1)NC(=O)[C@H](CCSC)N=CCCCC=N[C@H]1C[C@H](O[C@H]2C[C@](O)(C(=O)CO)Cc3c(O)c4c(c(O)c32)C(=O)c2c(OC)cccc2C4=O)O[C@@H](C)[C@H]1O)C(=O)N[C@@H](CCC(=O)O)C(=O)N[C@@H](C)C(=O)N[C@@H](CC(C)C)C(=O)N[C@@H](CC(=O)O)C(=O)N[C@@H](CO)C(=O)N[C@@H](Cc1ccc(O)cc1)C(=O)N[C@@H](C)C(=O)N[C@@H](CS)C(=O)O [Polypeptide-DR conjugate] (X1-YIEALDSYAC-OH) | – | – | – | – | – | 46.6 ± 5.7 | – | 0.07 | 0.0013 | 0.0011 | 0.022 | 0.15 | considerable delay in the onset of tumors and slowed their growth | 48.5 | 46 | –
3 | NH2-Met-Tyr-Ile-Glu-Ala-Leu-Asp-Ser-Tyr-Ala-Cys-COOH (H-MYIEALDSYAC-OH) [proposed polypeptide, synthetic polypeptide H2N-…-COOH similar to EGF fragment 21 to 31, Lys replaced with Ser] | – | – | – | – | – | – | – | – | – | – | – | – | – | – | – | more pronounced dose-dependent proliferative effect

Source: patent publication US7368431B2, “Polypeptide, the conjugate thereof with doxorubicine and a pharmaceutical composition based thereon” (Zakrytoe Aktsionernoe Obschestvo “Russkie Biotechnologll”, priority 2001, dated 2008)
